Experimental data from ChEMBL document CHEMBL5154929, “Optimization of the Natural Product Calothrixin A to Discover Novel Dual Topoisomerase I and II Inhibitors with Improved Anticancer Activity” (J Med Chem, 2022).
The source made the active and inactive calls. No cut-off for these calls is given here.

Experiments:
A-375 [1] = test: Antimigratory activity in human A-375 cells assessed as reduction in cell migration incubated for 24 hrs by wound healing assay; format: functional, cell-based; details: dose 10-40 nM, DDE = dose-dependent effect
A-375 [2] = test: Induction of apoptosis in human A-375 cells assessed as […] at 20 to 80 nM measured after 24 hrs by Annexin V-FITC and DAPI staining based flow cytometric analysis; format: functional; details: dose 20-80 nM
A-375 [3] = test: In vivo antitumor activity against human A-375 cells xenografted in BALB/c nude mouse assessed as shrinkage of tumor tissue treated after 7 days of tumor implantation on right flank subcutaneously at 10 to 20 mg/kg, iv administered once per 2 days for 14 days measured once every two days; format: functional, organism-based; details: dose 10-20 mg/kg, time 14.0 day
[4] = Cmax in Kunming mouse plasma at 10 mg/kg, iv administered as single dose measured after 5 to 360 mins by HPLC analysis; format: ADME, organism-based; parameters: dose 10 mg/kg, time upper 360 min, time lower 5 min, route iv
[5] = AUC in Kunming mouse plasma at 10 mg/kg, iv administered as single dose measured after 5 to 360 mins by HPLC analysis; format: ADME, organism-based; parameters: time upper 360 min, time lower 5 min, dose 10 mg/kg, route iv
[6] = Microsomal stability in mouse liver microsomes assessed as clearance measured at 2 ug/ml upto 60 mins in presence of NADPH generating system and UGT incubation system by phase II metabolic stability kit method; format: ADME, Microsome; details: dose 2 µg/ml, read-out: CLH
[7] = Metabolic stability in mouse plasma upto 5 hrs by HPLC-UV analysis; format: ADME, cell-free
SH-SY5Y = test: Cytotoxicity against human SH-SY5Y cells expressing low level of topoisomerase I/II measured after 72 hrs by MTT assay; format: functional, cell-based
HCT-116 [8] = test: Cytotoxicity against human HCT-116 cells expressing high level of topoisomerase I/II measured after 72 hrs by MTT assay; format: functional, cell-based; details: HCT-116, 72 h
A-375 [9] = test: Cytotoxicity against human A-375 cells expressing high level of topoisomerase I/II measured after 72 hrs by MTT assay; format: functional, cell-based; details: A-375, 72 h
[10] = Cytotoxicity against human L02 cells measured after 72 hrs by MTT assay; format: toxicity, cell-based
[11] = Cytotoxicity against human HEK293T cells measured after 72 hrs by MTT assay; format: toxicity, cell-based, HEK-293T
HCT-116 [12] = test: Antiproliferative activity against doxorubicin sensitive human HCT-116 cells measured after 72 hrs by MTT assay; format: functional, cell-based; details: HCT-116, 72 h
[13] = In vivo acute toxicity in Balb/C mouse assessed as effect on body weight at 50 mg/kg, iv administered once per 2 days for 7 days measured every other day; format: organism-based; details: 168 h, time 7 day
[14] = In vivo acute toxicity in Balb/C mouse assessed as pathological damage in heart at 50 mg/kg, iv administered once per 2 days for 7 days measured 24 hrs after last dose by H and E staining method; format: organism-based; details: 168 h, time 7 day
[15] = In vivo acute toxicity in Balb/C mouse assessed as pathological damage in lung at 50 mg/kg, iv administered once per 2 days for 7 days measured 24 hrs after last dose by H and E staining method; format: organism-based; details: 168 h, time 7 day
A-375 [16] = test: Inhibition of colony formation in human A-375 cells at 20 to 40 nM incubated for 48 hrs by crystal violet staining method; format: functional, cell-based; details: dose 20-40 nM
A-375 [17] = test: Induction of cell cycle arrest in human A-375 cells assessed as accumulation of cells at S phase at 80 nM incubated for 24 hrs by PI based flow cytometric analysis (RVB = 26.73%); format: functional
A-375 [18] = test: Induction of cell cycle arrest in human A-375 cells assessed as accumulation of cells at G2 phase at 80 nM incubated for 24 hrs by PI based flow cytometric analysis (RVB = 20.34%); format: functional
A-375 [19] = test: Induction of cell cycle arrest in human A-375 cells assessed as accumulation of cells at S phase at 20 nM incubated for 24 hrs by PI based flow cytometric analysis (RVB = 26.73%); format: functional
A-375 [20] = test: Induction of cell cycle arrest in human A-375 cells assessed as accumulation of cells at G2 phase at 20 nM incubated for 24 hrs by PI based flow cytometric analysis (RVB = 20.34%); format: functional
A-375 [21] = test: Induction of apoptosis in human A-375 cells at 80 nM measured after 16 hrs by Annexin V-FITC and DAPI staining based flow cytometric analysis; format: functional
A-375 [22] = test: Induction of apoptosis in human A-375 cells at 80 nM measured after 24 hrs by Annexin V-FITC and DAPI staining based flow cytometric analysis; format: functional
A-375 [23] = test: Induction of apoptosis in human A-375 cells at 120 nM measured after 24 hrs by Annexin V-FITC and DAPI staining based flow cytometric analysis; format: functional
A-375 [24] = test: Induction of apoptosis in human A-375 cells assessed as increase in expression level of Bad measured after 24 hrs by Western blotting analysis; format: functional, cell-based; details: dose 40-120 nM, DDE = dose-dependent effect
A-375 [25] = test: Induction of apoptosis in human A-375 cells assessed as increase in expression level of C-caspase-8 measured after 24 hrs by Western blotting analysis; format: functional, cell-based; details: dose 40-120 nM, DDE = dose-dependent effect
A-375 [26] = test: Induction of apoptosis in human A-375 cells assessed as increase in expression level of C-caspase-9 measured after 24 hrs by Western blotting analysis; format: functional, cell-based; details: dose 40-120 nM, DDE = dose-dependent effect
A-375 [27] = test: Induction of apoptosis in human A-375 cells assessed as increase in expression level of Bax measured after 24 hrs by Western blotting analysis; format: functional, cell-based; details: dose 40-120 nM, DDE = dose-dependent effect
A-375 [28] = test: In vivo antitumor activity against human A-375 cells xenografted in BALB/c nude mouse assessed as decrease in tumor volume treated after 7 days of tumor implantation on right flank subcutaneously at 10 to 20 mg/kg, iv administered once per 2 days for 14 days measured once every two days; format: functional, organism-based; details: dose 10-20 mg/kg, time 14.0 day
A-375 [29] = test: In vivo induction of apoptosis in human A-375 cells xenografted in BALB/c nude mouse assessed as […] treated after 7 days of tumor implantation on right flank subcutaneously at 10 to 20 mg/kg, iv administered once per 2 days for 14 days by measuring TUNEL positive cells under a light microscope; format: functional, organism-based; details: dose 10-20 mg/kg, time 14.0 day
Calf thymus DNA [30] = test: Binding affinity to calf thymus DNA assessed as intercalation by measuring hypochromic shift at 389 nm by […]; format: nucleic-acid assay; details: Bos taurus
Calf thymus DNA [31] = test: Binding affinity to calf thymus DNA assessed as intercalation by measuring hypochromic shift at 432 nm by […]; format: nucleic-acid assay; details: Bos taurus

With `O=C1c2c[n+]([O-])c3ccccc3c2C(=O)c2c1c1ccccc1n2Cc1cn([C@@H]2C[C@H](O)[C@@H](CO)O2)nn1` the Activity (A-375 [1]) was “Dde”, the Activity (A-375 [2]) was 38.36% and the Activity (A-375 [3]) was “Active”. For the same compound, the Cmax [4] was 27000 ng/mL, the AUC [5] was 48000 ng·h/mL and the microsomal CLint at 2 ug/ml [6] was 35 µL/min/mg. The Stability [7] was “Stable”, the IC50 (SH-SY5Y) was 150 nM and the IC50 (HCT-116 [8]) was 50 nM. It also gave an IC50 (A-375 [9]) of 20 nM, an IC50 at 72 h [10] of 630 nM and an IC50 at 72 h [11] of 820 nM. For the same compound, the IC50 (HCT-116 [12]) was 50 nM, the Activity [13] was “Non-Toxic” and the Activity [14] was “Non-Toxic”. The Activity [15] was “Non-Toxic”, the inhibition (A-375 [16]) was “Active” and the Activity (A-375 [17]) was 58.13%. The Activity (A-375 [18]) was 6.88%, the Activity (A-375 [19]) was 38.36% and the Activity (A-375 [20]) was 29.19%. For the same compound, the Activity (A-375 [21]) was 23.78%, the Activity (A-375 [22]) was 36.21% and the Activity (A-375 [23]) was 55.94%. For the same compound, the Activity (A-375 [24]) was “Dde”, the Activity (A-375 [25]) was “Dde” and the Activity (A-375 [26]) was “Dde”. For the same compound, the Activity (A-375 [27]) was “Dde”, the Activity (A-375 [28]) was “Active” and the Activity (A-375 [29]) was “Active”. For the same compound, the Activity (Calf thymus DNA [30]) was 29% and the Activity (Calf thymus DNA [31]) was 32%.
